Results on 2 compounds are retold here after article PMC6015500 (ACS combinatorial science, 2015).

Data set [1] relates to HCV-Luc (recombinant HCV carrying the Renilla luciferase reporter). In words: HCV-Luc infection assay. In kind it is cell-based, hepatitis C virus (HCV).
A further data set has as its system Huh7.5.1 cells. Briefly: in vitro. It is filed as cell-based.
Data set [2] is described as follows: in vitro. It is filed as cell-based. The following applies: human.
The nature of data set [3]: in vitro. In kind it is cell-based. The following applies: human. The source holds these as a separate data set.
Data set [4] concerns single-round infectious HCV (HCVsc). Briefly: HCV single-cycle assay. In kind it is cell-based, hepatitis C virus (HCV). The note with it: tested at 10 µM; % of DMSO control.
Data set [5] deals with HCV pseudoparticle (HCVpp) GT 1a. In words: HCVpp entry assay, genotype 1a. It is filed as cell-based, hepatitis C virus (HCV). The following applies: tested at 10 µM; % of DMSO control.
The test system of data set [6] is HCV pseudoparticle (HCVpp) GT 1b. Briefly: HCVpp entry assay, genotype 1b. In kind it is cell-based, hepatitis C virus (HCV). The following applies: tested at 10 µM; % of DMSO control.
The subject of another data set is VSVpp. In kind it is cell-based.
Data set [7] concerns HCV replicon cell line of genotype 1b. Briefly: HCV subgenomic replicon assay, genotype 1b. It is filed as cell-based, hepatitis C virus (HCV). The note with it: tested at 10 µM; % of DMSO control. On the technique in general: A replicon is a self-replicating genome or part of one, used to study replication in cells.
Data set [8] deals with HCV replicon cell line of genotype 2a. Briefly: HCV subgenomic replicon assay, genotype 2a. In kind it is cell-based, hepatitis C virus (HCV). The note with it: tested at 10 µM; % of DMSO control.
The test system of data set [9] is transient genotype 1a subgenomic replicon in Huh7.5.1 cells. In words: Transient genotype 1a replicon assay. It is filed as cell-based, hepatitis C virus (HCV). The note with it: tested at 10 µM; % of DMSO control.
The nature of data set [10]: In vitro microsomal stability. The following applies: CD-1, mouse, liver microsomes. In kind it is in vitro ADME.
Data set [11] is described as follows: Double-sink PAMPA permeability. It is filed as in vitro ADME. A general note: The PAMPA barrier holds no transporters, so it reflects passive diffusion.
For data set [12], the system named is wild-type HCV (HCVcc, genotype 2a). In words: HCVcc wild-type infection assay. In kind it is cell-based, hepatitis C virus (HCV). The following applies: Huh7.5.1 cells, compounds at 10 µM, 48 h, quantitative real-time PCR. (In general: Quantitative PCR measures a nucleic acid by following its amplification.)

Read-outs that look alike come from different tables or passages of the source.

Regarding `COc1ccc(-c2ccc3oc(-c4ccc(OC)cc4)c(C#CCCO)c3c2)cc1` [2{1}], in [1], the “inhibitory activity in the HCV-Luc assay” value was “low-micromolar”. The EC50 in data set [1] (read-out: HCV-Luc EC50, Huh7.5.1 cells, 48 h, Renilla luciferase signal) is 980 nM. The same compound returned a CC50 in the data set with Huh7.5.1 cells of 70900 nM.
As to `COc1ccc(-c2oc3ccc(-c4ccc5c(c4)OCO5)nc3c2C#CC2(O)CCCCC2)cc1` [10{21}, 1-((5-(Benzo[d][1,3]dioxol-5-yl)-2-(4-methoxyphenyl)furo-[3,2-b]pyridin-3-yl)ethynyl)cyclohexanol], the EC50 in [1] (Huh-7.5.1, 48 h, read-out: HCV-Luc EC50) was determined as 184 nM; in data set [1] (Huh-7.5.1, read-out: HCV-Luc EC50) it was 180 nM. Also, in data set [1] (SI = CC50/EC50, Huh7.5.1 cells), the “Selective Index (SI)” value is reported as more than 543. For the same compound, in the data set “in vitro [2]”, the CC50 at 48 h is more than 100000 nM. For the same compound, in “in vitro [3]”, the CC50 was 92300 nM. In addition, the “HCVsc DMSO (%)” value in data set [4] is 20.0%. Also, in data set [5], the “HCVpp DMSO (%) GT la” value was 41.2%. Moreover, the “HCVpp DMSO (%) GT lb” value in [6] is 78.1%. Moreover, in the data set on VSVpp, the “VSVpp DMSO (%)” value amounted to 121%. In addition, the “HCV Replicon DMSO (%) GT lb” value in data set [7] is 82.1%. Also, the “HCV Replicon DMSO (%) GT 2a” value in data set [8] came to 121%. Besides, the “HCV Replicon DMSO (%) Transient la” value in data set [9] is recorded as 194%. In [10], this compound came in with a half-life of more than 30 min. In addition, the Papp in [11] (PAMPA) was less than 15.4 ×10⁻⁶ cm/s. In addition, the “permeability” value in data set [11] (double-sink PAMPA) was “moderate permeability”. Further, the “extracellular and intracellular viral RNA levels” value in [12] is “most promising activity”.

Broadly, the EC50 is the concentration at which the effect is half-maximal. Usually CC50 stands for the concentration that lowers cell viability or growth by half. As usually defined, the half-life is how long it takes for the measured level to halve. A higher half-life goes with slow decline. The term Papp denotes the rate of passage across a membrane or cell layer, normalised by area and donor concentration. Read a low Papp as slow passage.
